According to patent publication US6013625A, “Method and composition for treating thrombosis” (La Jolla Cancer Research Foundation, priority 1994, dated 2000):
Values joined by “and” are separate entries in the source; they are usually repeats but may differ in a detail not shown here. Equal entries are not always repeated.

What was measured:
[1] = test system: platelets stimulated with ADP; test: ADP-stimulated platelet aggregation (aggregometer, platelet-rich plasma); conditions: read-out: ADP-Stimulated Aggregation (IC50), ADP 10 μm, 37° C.
Procedure: Briefly, the change in light transmission was measured through a stirred suspension of platelets in an aggregometer (Model 400 VS, Chrono-Log, Havertown, Pa., USA). […] In studies using thrombin, the PRP was gel-filtered on Sepharose 2B in divalent ion-free Tyrode's solution containing 2% BSA. For all studies, the reference standard was platelet-poor plasma, which was obtained by centrifuging PRP at 1000×g for 5 min.
All aggregation studies were performed at 37° C. with a constantly stirred suspension of 3×10^8 platelets/ml. (Platelet count was determined with the aid of a hemacytometer.) Peptides and stimulants were added to these suspensions in 1% dilutions. The PRP and gel-filtered platelets were used within three hours from the time of blood collection.
Peptide anti-aggregation potencies were determined from dose-responsive curves for the inhibition of the maximum aggregation responses stimulated by physiologic doses of ADP (10 μm) and thrombin (2 U/ml).

[2] = target: T1, fibronectin receptor (Fn-R) (Homo sapiens, UniProt P05556+P08648); test: Competitive ELISA for fibronectin receptor binding; conditions: purified receptor from human placenta, read-out: FnR Binding (IC50)
T1 construct: purified from (100 mM) octyl glucoside-extracted human placenta; from tissue; host or cells: human placenta
Procedure: Peptide binding to purified Fn-R was determined by using a competitive enzyme-linked immunosorbent assay (ELISA) in which fibronectin is immobilized and the binding of solubilized Fn-R is detected with labeled anti-FnR antibodies in the presence of various concentrations of peptide analogue.
Microtiter plates were coated with 110 μl of human fibronectin (at 2 μg/ml) in TBS. The plates were washed three times with TBS that contained 0.05% Tween 20. If necessary, peptides were added after this washing in 10 microliter aliquots. The fibronectin receptor was then added in 2-fold serial dilutions with TBS containing 20 mM octyl glucoside and 2 mM MnCl2. The plates were incubated for three hours at room temperature, washed with 200 μl of the above TBS-Tween buffer. 100 μl of affinity-purified rabbit anti-human fibronectin receptor antibody was added to the wells and the plates were incubated for an additional two hours, washed twice with TBS-Tween and then distilled water. Affinity-purified goat anti-rabbit IgG conjugated to horseradish peroxidase (100 μl) was then added to each well. Bonding reactions were incubated for 16 hours at room temperature. The following day, the plates were washed twice with TBS-Tween and then distilled water. […]

[3] = target: T2, vitronectin receptor (Vn-R) (Homo sapiens, UniProt P05106+P06756); test: Liposome attachment assay for vitronectin receptor; conditions: purified receptor from human placenta, read-out: VnR Binding (IC50)
T2 construct: from tissue; host or cells: human placenta
Procedure: Receptors were purified according to the procedures of Pytela et al. (Methods Enzymol. 144:475 (1987)), incorporated herein by reference. […] After extraction, the suspension was filtered over a Sepharose 6B column and then applied to a GRGDSPK column. Except where stated, all procedures were carried out at 4° C. The peptide column was washed with three volumes of Tris-buffered saline (TBS) containing 1 mM Ca^2+ and 25 mM OG and then with TBS containing 1 mM Ca^2+ and 25 mM octyl thioglucoside (OTG) at room temperature. […] Finally, Ca^2+ and Mg^+2 were added to eluted fractions to achieve final concentrations of 1 mM for both ions.
This assay was performed with minor modifications, according to the method of Pytela et al., Methods Enzymol. 144:475 (1987), incorporated herein by reference. […] An aliquot of the dialyzed sample was counted to assess radioactive content; the receptor-liposome mixture was then diluted to obtain a set radioactivity per unit volume. […]
(§1) In parallel studies with the platelet aggregation experiments (described in Example V), the apparent affinities of peptides for GP IIb/IIIa, fibronectin and vitronectin receptors were determined. […]
(§2) IC50 s for FnR were determined by ELISA (Example III). Those for VnR and GP IIb/IIIa were determined by liposome attachment assay (Example IV). […]

[4] = target: GP IIb/IIIa (Homo sapiens, UniProt P05106+P08514); test: Liposome attachment assay for GP IIb/IIIa; conditions: read-out: IIb/IIIa Binding (IC50)
Procedure: This assay was performed with minor modifications, according to the method of Pytela et al., Methods Enzymol. 144:475 (1987), incorporated herein by reference. Briefly, 1:4 mixture of labelled and unlabelled phosphatidylcholine (PC) liposomes was dissolved under nitrogen and diluted with an equal volume of purified receptor (purified as described in Example II) to achieve a fixed predetermined receptor-liposome concentration ratio. This mixture was then dialyzed overnight at 4° C. in phosphate buffered saline (PBS) containing 1 mM Ca^2+. An aliquot of the dialyzed sample was counted to assess radioactive content; the receptor-liposome mixture was then diluted to obtain a set radioactivity per unit volume.
Microtiter plates were coated with 10 μg of vitronectin. Non-specific sites were blocked for 2 hours at 37° C. in PBS containing 5 mg/ml BSA and 1 mM each of CaCl2 and MgCl2. The plates were then rinsed twice with PBS containing 1 mM Ca^+2 and Mg^+2, and 100 μl of the liposome-receptor mixture was added to each well. […]
as §1, §2

[5] = test system: platelets; test: Ex vivo platelet aggregation after peptide injection in the canine coronary thrombosis model; set-up: species or system dog; conditions: for reduction of ex vivo aggregation relative to control levels: 3 mg/kg
Procedure: For all ex vivo studies (see FIG. 3), control aggregation values were standardized to the percentages of light transmission observed in PRP and PPP samples (0% and 100%, respectively).
Animals were randomly assigned to two treatment groups: vehicle control (i.e., normal saline) or RGD peptides at various concentrations. Peptides were administered intra-atrially in both bolus and continuous injections. […] A continuous infusion of the same peptide was then started immediately after completion of this initial injection. Animals that received a 5 mg/kg bolus also received a 5 mg/kg/hr infusion, whereas animals that received a 10 mg/kg bolus also received a 10 mg/kg/hr infusion. The anti-thrombotic effects of the peptides were monitored until 30 minutes after the occurrence of a persistent, occlusive thrombus or five hours after the initiation of electrical stimulation (whichever resulted first). If an occlusive thrombus had not developed within four hours after the initiation of current, the peptide infusion was stopped.
Platelet counts and ex vivo aggregation studies were performed one hour before and 1, 3, and 5 hours after application of anodal direct current.
Platelet aggregation was also determined ex vivo at one, three, and five hours after current application. For these studies, arachidonic acid, or collagen was again used to stimulate the platelets.

[6] = test system: coronary thrombosis; test: Electrically induced canine coronary thrombosis, time to full occlusion; assay type: in vivo, dog
Procedure: Male mongrel dogs weighing 14 to 20 kg were selected based on proper aggregation of their platelets in response to arachidonic acid, collagen, and adenosine disphosphate (ADP) and based on similar weights and hemodynamic properties.
Before surgery, the animals were anesthetized with sodium pentobarbital (30 mg/kg, i.v.) and then intubated and ventilated on room air with positive pressure using a respirator (Harvard Apparatus, S. Natick, Mass.) at a volume of 30 ml/kg and a frequency of 12 breaths/min. Surgery, performed under aseptic conditions, was begun with the placement of cannulae into the left carotid artery and jugular vein for monitoring arterial blood pressure (Statham P23 pressure transducer, Gould, Inc., Cardiovascular Products, Oxnard, Calif.) and administering intravenous fluids.
The heart was exposed via a left thoracotomy through the 5th intercostal space. A 2-cm segment of the left circumflex coronary artery (LCCA) was isolated from surrounding tissue by blunt dissection. […] The intra-coronary electrode was constructed by attaching a 25-gauge hypodermic needle tip to a 30-gauge Teflon-insulated silver-coated copper wire. The mechanical occluder was constructed of stainless steel in a C shape with a Teflon screw (2 mm diameter) on top. It was adjusted to control vessel circumference and decrease the reactive hyperemic flow due to a 10-sec (full) occlusion by 50-70% without affecting basal coronary blood flow (FIG. 1). A monopolar epicardial electrode was sutured to the surface of the ventricle in the region of LCCA distribution to monitor ischemic changes in the electrocardiogram (ECG). The left atrium was cannulated with polythylene tubing for administration of the peptide. Continuous recordings of blood pressure, limb lead II ECG, epicardial electrogram, and mean and phasic LCCA blood flow were obtained on a Model 7 polygraph (Grass Instrument Co., Quincy, Mass.).
One hour after the completion of surgery, a 100 micro-amp continuous anodal direct current delivered from a 9 volt nickel-cadmium battery was applied to the intimal surface of the LCCA. The anode of the battery was in series with a 250,000 ohm potentiometer and the intraluminal coronary artery electrode. The electric circuit was completed by placing the cathode in a subcutaneous site. Electrical stimulation was applied for three hours. At the conclusion of each experiment, the heart was fibrillated electrically and quickly removed, and the LCCA was dissected free as far as possible to verify the position of the implanted anodal electrode.
Animals were randomly assigned to two treatment groups: vehicle control (i.e., normal saline) or RGD peptides at various concentrations. Peptides were administered intra-atrially in both bolus and continuous injections. Each bolus injection consisted of 5 or 10 mg/kg and was administered 15 minutes before application of the current. A continuous infusion of the same peptide was then started immediately after completion of this initial injection. Animals that received a 5 mg/kg bolus also received a 5 mg/kg/hr infusion, whereas animals that received a 10 mg/kg bolus also received a 10 mg/kg/hr infusion. The anti-thrombotic effects of the peptides were monitored until 30 minutes after the occurrence of a persistent, occlusive thrombus or five hours after the initiation of electrical stimulation (whichever resulted first). If an occlusive thrombus had not developed within four hours after the initiation of current, the peptide infusion was stopped.
Coronary thrombosis was quantified as the time to full occlusion. The effects of the various peptide treatments on coronary thrombosis is illustrated in FIG. 4.

[7] = test system: platelets; test: Ex vivo ADP-stimulated platelet aggregation in baboon PRP; conditions: animal 2; ADP 10 μm; 0, 1 and 2 hours
Procedure: At one- and two-hour time points, template bleeding times were measured, and blood samples were drawn to assess the hematology aggregation studies. Platelet aggregation studies were performed as described in Example V using ADP as the stimulus.
In addition, platelet aggregation studies were conducted on PRP derived from the second animal. Whole blood was drawn at three time points (0, 1 and 2 hours) of both control and experimental shunts.

[8] = 10 mg/kg, all three time points
[9] = 10 mg/kg bolus + 10 mg/kg/hr, intra-atrial

T1 sequence (P08648 42-894 limits assumed): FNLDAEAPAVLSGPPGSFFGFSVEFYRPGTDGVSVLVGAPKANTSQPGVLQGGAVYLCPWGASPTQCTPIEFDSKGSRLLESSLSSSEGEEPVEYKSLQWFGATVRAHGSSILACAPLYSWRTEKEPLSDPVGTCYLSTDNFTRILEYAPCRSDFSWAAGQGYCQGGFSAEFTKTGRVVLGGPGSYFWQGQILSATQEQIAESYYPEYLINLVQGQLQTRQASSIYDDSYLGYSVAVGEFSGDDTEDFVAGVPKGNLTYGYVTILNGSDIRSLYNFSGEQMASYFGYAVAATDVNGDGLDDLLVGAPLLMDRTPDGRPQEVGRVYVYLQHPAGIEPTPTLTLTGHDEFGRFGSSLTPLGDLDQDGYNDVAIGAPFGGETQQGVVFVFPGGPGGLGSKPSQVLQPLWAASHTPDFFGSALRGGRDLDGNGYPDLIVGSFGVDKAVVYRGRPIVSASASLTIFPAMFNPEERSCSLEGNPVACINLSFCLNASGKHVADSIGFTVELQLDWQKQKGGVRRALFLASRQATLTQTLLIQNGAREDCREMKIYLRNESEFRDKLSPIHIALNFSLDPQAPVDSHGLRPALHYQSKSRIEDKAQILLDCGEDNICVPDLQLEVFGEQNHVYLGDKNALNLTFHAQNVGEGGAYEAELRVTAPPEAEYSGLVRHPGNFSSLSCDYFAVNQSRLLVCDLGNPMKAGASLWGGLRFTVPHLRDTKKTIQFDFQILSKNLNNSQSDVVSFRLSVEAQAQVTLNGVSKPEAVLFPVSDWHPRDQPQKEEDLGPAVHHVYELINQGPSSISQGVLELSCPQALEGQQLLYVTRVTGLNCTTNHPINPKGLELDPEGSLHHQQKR
T1 sequence (P08648 895-1049 partner limits assumed): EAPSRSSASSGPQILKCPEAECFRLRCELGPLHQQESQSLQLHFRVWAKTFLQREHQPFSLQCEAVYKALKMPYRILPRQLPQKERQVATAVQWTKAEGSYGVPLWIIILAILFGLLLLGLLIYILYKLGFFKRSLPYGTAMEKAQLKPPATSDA
T1 sequence (P05556 21-798): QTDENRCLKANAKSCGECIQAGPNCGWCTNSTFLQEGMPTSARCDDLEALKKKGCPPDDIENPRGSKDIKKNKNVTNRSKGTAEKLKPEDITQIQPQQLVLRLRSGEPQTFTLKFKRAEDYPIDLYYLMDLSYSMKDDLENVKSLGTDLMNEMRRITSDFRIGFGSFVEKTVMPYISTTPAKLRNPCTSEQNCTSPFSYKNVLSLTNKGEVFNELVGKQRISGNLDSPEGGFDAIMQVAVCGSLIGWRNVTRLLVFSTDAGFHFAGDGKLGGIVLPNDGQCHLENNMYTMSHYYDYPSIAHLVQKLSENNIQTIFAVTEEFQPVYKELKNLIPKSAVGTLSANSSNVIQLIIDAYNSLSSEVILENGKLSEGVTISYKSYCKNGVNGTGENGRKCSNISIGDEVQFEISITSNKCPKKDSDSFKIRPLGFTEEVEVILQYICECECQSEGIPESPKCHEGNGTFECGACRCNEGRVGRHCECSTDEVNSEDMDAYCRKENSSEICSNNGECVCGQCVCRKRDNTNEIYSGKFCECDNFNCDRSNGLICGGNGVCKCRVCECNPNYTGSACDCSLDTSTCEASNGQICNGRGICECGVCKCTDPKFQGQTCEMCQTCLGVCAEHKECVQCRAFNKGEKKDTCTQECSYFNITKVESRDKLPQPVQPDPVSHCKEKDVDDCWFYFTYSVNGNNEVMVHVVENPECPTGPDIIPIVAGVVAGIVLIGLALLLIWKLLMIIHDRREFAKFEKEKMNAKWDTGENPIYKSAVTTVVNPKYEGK
Chain of GP IIb/IIIa (P08514 32-887 limits assumed): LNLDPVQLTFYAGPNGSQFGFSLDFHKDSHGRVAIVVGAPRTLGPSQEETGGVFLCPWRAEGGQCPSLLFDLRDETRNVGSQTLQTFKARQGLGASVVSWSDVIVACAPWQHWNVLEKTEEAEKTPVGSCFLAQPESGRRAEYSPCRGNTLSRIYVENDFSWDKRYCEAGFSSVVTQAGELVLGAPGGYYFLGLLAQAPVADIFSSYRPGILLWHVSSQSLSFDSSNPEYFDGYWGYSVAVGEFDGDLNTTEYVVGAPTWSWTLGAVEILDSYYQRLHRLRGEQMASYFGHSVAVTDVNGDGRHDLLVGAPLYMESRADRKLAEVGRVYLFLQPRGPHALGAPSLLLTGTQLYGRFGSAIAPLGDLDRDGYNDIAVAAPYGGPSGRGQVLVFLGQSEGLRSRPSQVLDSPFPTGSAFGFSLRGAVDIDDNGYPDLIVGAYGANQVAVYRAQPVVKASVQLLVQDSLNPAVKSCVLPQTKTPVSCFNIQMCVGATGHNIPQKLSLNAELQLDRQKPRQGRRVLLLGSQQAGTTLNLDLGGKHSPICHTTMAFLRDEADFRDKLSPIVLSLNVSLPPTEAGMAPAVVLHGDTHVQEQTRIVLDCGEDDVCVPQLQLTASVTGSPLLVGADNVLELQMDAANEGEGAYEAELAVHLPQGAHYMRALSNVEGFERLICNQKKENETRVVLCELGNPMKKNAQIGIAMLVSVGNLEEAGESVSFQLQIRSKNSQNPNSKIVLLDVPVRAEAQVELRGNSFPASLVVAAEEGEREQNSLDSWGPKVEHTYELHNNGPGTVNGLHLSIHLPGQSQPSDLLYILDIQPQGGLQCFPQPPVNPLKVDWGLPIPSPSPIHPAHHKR
Chain of GP IIb/IIIa (P08514 891-1039 partner limits assumed): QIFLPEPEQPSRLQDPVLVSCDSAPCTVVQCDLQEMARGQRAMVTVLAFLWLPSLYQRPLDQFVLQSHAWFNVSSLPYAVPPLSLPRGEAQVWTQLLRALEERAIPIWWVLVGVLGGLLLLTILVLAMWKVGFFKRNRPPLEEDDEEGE
Chain of GP IIb/IIIa (P05106 27-788): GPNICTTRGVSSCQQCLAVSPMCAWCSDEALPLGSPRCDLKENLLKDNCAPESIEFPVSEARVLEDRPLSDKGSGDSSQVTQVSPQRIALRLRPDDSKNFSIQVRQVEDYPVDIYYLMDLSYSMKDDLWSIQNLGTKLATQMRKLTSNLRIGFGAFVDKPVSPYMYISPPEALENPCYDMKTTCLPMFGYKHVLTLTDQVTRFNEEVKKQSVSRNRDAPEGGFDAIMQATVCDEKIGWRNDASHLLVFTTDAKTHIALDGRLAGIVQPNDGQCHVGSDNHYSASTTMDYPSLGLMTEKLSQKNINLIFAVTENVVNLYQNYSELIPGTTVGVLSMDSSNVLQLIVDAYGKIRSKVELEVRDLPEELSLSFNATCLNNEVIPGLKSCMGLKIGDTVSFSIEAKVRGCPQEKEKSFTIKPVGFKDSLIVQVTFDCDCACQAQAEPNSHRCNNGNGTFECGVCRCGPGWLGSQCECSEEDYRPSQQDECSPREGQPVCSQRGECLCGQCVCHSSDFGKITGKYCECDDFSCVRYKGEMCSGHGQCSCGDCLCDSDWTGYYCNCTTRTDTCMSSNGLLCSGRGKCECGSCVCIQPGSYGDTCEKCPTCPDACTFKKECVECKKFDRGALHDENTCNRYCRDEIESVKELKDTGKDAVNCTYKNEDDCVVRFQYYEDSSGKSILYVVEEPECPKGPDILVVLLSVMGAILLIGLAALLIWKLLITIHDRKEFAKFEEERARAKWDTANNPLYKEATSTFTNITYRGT
T2 sequence (P06756 31-889 limits assumed): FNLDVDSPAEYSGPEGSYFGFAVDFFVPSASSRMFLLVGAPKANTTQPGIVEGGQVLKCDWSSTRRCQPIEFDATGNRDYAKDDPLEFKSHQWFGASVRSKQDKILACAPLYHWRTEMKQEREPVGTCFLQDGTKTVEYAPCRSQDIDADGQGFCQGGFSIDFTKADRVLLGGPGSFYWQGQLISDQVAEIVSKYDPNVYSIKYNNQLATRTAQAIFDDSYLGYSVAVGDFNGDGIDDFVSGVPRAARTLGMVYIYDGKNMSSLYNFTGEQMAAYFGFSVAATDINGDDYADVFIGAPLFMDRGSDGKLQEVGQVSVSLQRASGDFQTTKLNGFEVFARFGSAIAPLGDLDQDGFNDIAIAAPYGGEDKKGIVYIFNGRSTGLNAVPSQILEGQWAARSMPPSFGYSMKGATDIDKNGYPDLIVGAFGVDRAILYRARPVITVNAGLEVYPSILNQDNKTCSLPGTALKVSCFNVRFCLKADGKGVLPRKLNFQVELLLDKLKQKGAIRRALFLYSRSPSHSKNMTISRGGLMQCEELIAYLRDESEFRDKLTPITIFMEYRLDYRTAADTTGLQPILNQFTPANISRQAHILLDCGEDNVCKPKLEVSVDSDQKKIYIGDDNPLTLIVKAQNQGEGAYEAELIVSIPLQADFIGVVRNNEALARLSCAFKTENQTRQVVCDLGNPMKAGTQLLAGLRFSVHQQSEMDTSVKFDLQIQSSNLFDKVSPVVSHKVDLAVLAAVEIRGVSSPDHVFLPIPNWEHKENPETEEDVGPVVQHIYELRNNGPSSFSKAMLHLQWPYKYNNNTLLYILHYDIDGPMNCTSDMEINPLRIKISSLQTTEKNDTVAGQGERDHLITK
T2 sequence (P06756 891-1048 partner limits assumed): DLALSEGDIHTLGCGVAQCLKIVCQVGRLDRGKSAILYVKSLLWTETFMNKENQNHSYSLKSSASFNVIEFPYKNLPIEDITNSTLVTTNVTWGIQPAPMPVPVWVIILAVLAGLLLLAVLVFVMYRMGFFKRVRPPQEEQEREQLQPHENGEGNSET
T2 sequence (P05106 27-788): as the sequence (P05106 27-788) above

(t-but-am-Pam-Pmp)GHRGDLRPenA
IC50 [1]: 89 µM

FRGDSPDG
IC50 [2]: 120 nM

GHRGDLRDASG
IC50 [3]: 36.8 µM

GPGRGDSPCA
IC50 [4]: 20 µM

GPenGHRGDLRCA
inhibition of ADP-stimulated ex vivo aggregation ([5]; 10 mg/kg, 1, 3 and 5 h): substantially inhibited
inhibition of AA-stimulated ex vivo aggregation relative to control levels [5, 8]: 43-70%
inhibition of collagen-stimulated ex vivo aggregation relative to control levels [5, 8]: 12-50%
time to full occlusion (coronary thrombosis) [6, 9]: did not significantly influence
ex vivo platelet responsiveness to ADP [7]: completely unresponsive

GRGDSPDG
IC50 [2]: 5 nM

RPenGHRGDWRCR
blockade of all ex vivo aggregation responses ([5]; 5 mg/kg): completely or near-maximally blocked
inhibition of ex vivo platelet activation by collagen ([5]; 5 mg/kg): near-maximal inhibition
platelet responsiveness ex vivo to ADP and AA ([5]; 5 mg/kg, all three time points): completely unresponsive
thrombus formation in animals whose circulating platelet levels were one-third of normal ([6]; 5 mg/kg): able to prevent thrombus formation
time to full occlusion (coronary thrombosis) ([6]; 5 mg/kg bolus + 5 mg/kg/hr, intra-atrial): significantly prolonged
time to full occlusion (coronary thrombosis) [6, 9]: completely prevented occlusion

RPenGRGDWPCR
reduction of ex vivo aggregation relative to control levels ([5]; one hour): 20-58%
reduction of ex vivo aggregation relative to control levels ([5]; three and five hours, listed as 4R): 75-100% and 72-100%
ex vivo platelet responsiveness to all modes of stimulation ([5]; 10 mg/kg, all time points): unresponsive
time to full occlusion (coronary thrombosis) ([6]; 3 mg/kg): ineffective
time to full occlusion (coronary thrombosis) [6, 9]: prevented occlusion
